Measured values taken from the supplement of paper PMC6045584.
± gives the standard deviation of the averaged measurements.

Key:
[1] = compound: C=CCn1c(=O)c2cnc(Nc3ccc(N4CCN(C)CC4)cc3)nc2n1-c1cccc(C(C)(C)O)n1 [MK-1775]; experiment: surviving fraction relative to DMSO-only wells; higher = less growth inhibition; conditions: exposure time: 5 days
Summary of the method: (§1)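 Lines were retained only if, across three screens, replicate Pearson r was >0.7 and median Z' was >0.3. Viability was measured as CellTiter-Glo luminescence and reported as surviving fraction relative to the median of DMSO-only wells. Readings followed 10 minutes at room temperature, after log-phase tumour cells seeded at 250–500 per well in 384-well plates had been exposed, from 24 hours after seeding, continuously for five days to inhibitors at 0.5, 1, 5, 10, 50, 100, 500 and 1000 nM.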

[2] = compound: CC/C(=C(\c1ccc(O)cc1)c1ccc(OCCN(C)C)cc1)c1ccccc1 [AFIMOXIFENE]; experiment: as above; conditions: exposure time: 5 days
Summary of the method: as §1

Test System	surviving fraction ([1]; 0.5 nM)	surviving fraction ([1]; 1 nM)	surviving fraction ([1]; 5 nM)	surviving fraction ([1]; 10 nM)	surviving fraction ([1]; 50 nM)	surviving fraction ([1]; 100 nM)	surviving fraction ([1]; 500 nM)	surviving fraction ([1]; 1000 nM)	surviving fraction ([2]; 0.5 nM)	surviving fraction ([2]; 1 nM)	surviving fraction ([2]; 5 nM)	surviving fraction ([2]; 10 nM)	surviving fraction ([2]; 50 nM)	surviving fraction ([2]; 100 nM)	surviving fraction ([2]; 500 nM)	surviving fraction ([2]; 1000 nM)
SCC36 HEADNECK	1.05 ± 0.066	1.08 ± 0.12	1.18 ± 0.065	0.995 ± 0.053	0.906 ± 0.035	0.739 ± 0.037	0.323 ± 0.029	0.228 ± 0.021	1.07 ± 0.16	0.969 ± 0.026	1.13 ± 0.046	1.1 ± 0.047	1.07 ± 0.047	1.1 ± 0.078	0.883 ± 0.06	0.732 ± 0.074
SCC47 HEADNECK	1.01 ± 0.031	1.06 ± 0.025	1.11 ± 0.051	1.11 ± 0.08	0.992 ± 0.053	0.713 ± 0.047	0.238 ± 0.025	0.159 ± 0.014	1.26 ± 0.02	1.2 ± 0.038	1.31 ± 0.11	1.27 ± 0.13	1.31 ± 0.085	1.29 ± 0.12	1.24 ± 0.047	1.2 ± 0.055
SCC90 HEADNECK	1.25 ± 0.31	1.2 ± 0.16	1.07 ± 0.078	1.12 ± 0.25	0.704 ± 0.034	0.355 ± 0.017	0.0583 ± 0.0068	0.0493 ± 0.011	1.14 ± 0.052	1.12 ± 0.11	1.1 ± 0.045	1.19 ± 0.068	1.12 ± 0.074	1.09 ± 0.059	1.11 ± 0.025	1.05 ± 0.075
SG27 HEADNECK	1.04 ± 0.046	1.04 ± 0.11	1.08 ± 0.068	1.03 ± 0.11	0.969 ± 0.12	1.01 ± 0.14	0.853 ± 0.1	0.896 ± 0.061	1.09 ± 0.16	1.06 ± 0.14	1.05 ± 0.023	1.02 ± 0.059	1.16 ± 0.063	1 ± 0.23	1.21 ± 0.11	1.1 ± 0.078
SG28 HEADNECK	0.987 ± 0.18	1.11 ± 0.066	1.14 ± 0.12	1.04 ± 0.046	0.698 ± 0.0084	0.549 ± 0.032	0.441 ± 0.034	0.558 ± 0.11	1.208 ± 0.0021	1.04 ± 0.057	1.1 ± 0.15	0.965 ± 0.1	1.14 ± 0.1	0.985 ± 0.04	1.12 ± 0.04	1.05 ± 0.088
SG31 HEADNECK	1.15 ± 0.19	1.03 ± 0.1	0.968 ± 0.097	0.977 ± 0.12	0.979 ± 0.14	0.789 ± 0.1	0.623 ± 0.074	0.649 ± 0.048	1.4 ± 0.15	1.21 ± 0.07	1.18 ± 0.16	1.06 ± 0.095	1.07 ± 0.15	1.09 ± 0.051	1.08 ± 0.099	
SG32 HEADNECK	1.25 ± 0.072	1.43 ± 0.26	1.13 ± 0.19	1.14 ± 0.2	0.852 ± 0.074	0.476 ± 0.037	0.22 ± 0.038	0.19 ± 0.0027	1.09 ± 0.33	1.93 ± 1.3	1.26 ± 0.11	1.18 ± 0.25	1.09 ± 0.093	0.982 ± 0.053	1.12 ± 0.087	1.21 ± 0.2
SG43 HEADNECK	1.22 ± 0.14	1.01 ± 0.11	1.02 ± 0.084	0.823 ± 0.063	0.906 ± 0.072	0.911 ± 0.06	0.783 ± 0.14	0.549 ± 0.14	0.934 ± 0.082	1.06 ± 0.26	1.14 ± 0.34	0.825 ± 0.14	0.903 ± 0.016	1 ± 0.14	1.16 ± 0.12	0.927 ± 0.13
SIHA CERVIX	1.08 ± 0.03	1.04 ± 0.054	1.09 ± 0.066	1.08 ± 0.039	1.17 ± 0.085	1.16 ± 0.057	0.277 ± 0.049	0.0987 ± 0.013	1.1 ± 0.029	1.07 ± 0.051	1.09 ± 0.072	1.19 ± 0.031	1.15 ± 0.06	1.21 ± 0.032	1.13 ± 0.062	1.09 ± 0.058
SJSA1 BONE	1 ± 0.011	1.0057 ± 0.00058	1.03 ± 0.026	1.04 ± 0.034	1.02 ± 0.033	0.938 ± 0.049	0.384 ± 0.011	0.317 ± 0.02	1.6 ± 0.021	1.74 ± 0.059	1.65 ± 0.083	1.74 ± 0.087	1.78 ± 0.027	1.52 ± 0.05	1.79 ± 0.059	1.27 ± 0.068
SKBR3 BREAST	1.07 ± 0.15	0.873 ± 0.22	0.975 ± 0.15	1.02 ± 0.15	0.858 ± 0.12	0.746 ± 0.077	0.308 ± 0.031	0.182 ± 0.0035	1.16 ± 0.077	1.1 ± 0.16	1.16 ± 0.11	1.12 ± 0.16	1.17 ± 0.13	1.06 ± 0.19	1.16 ± 0.12	0.923 ± 0.12
SNU475 LIVER	1.05 ± 0.06	1.04 ± 0.032	1.04 ± 0.024	0.9893 ± 0.0081	0.941 ± 0.035	0.884 ± 0.054	0.58 ± 0.031	0.345 ± 0.033	1.06 ± 0.024	1.09 ± 0.055	1.03 ± 0.016	1.04 ± 0.057	1.01 ± 0.022	1.07 ± 0.034	1.01 ± 0.054	1.07 ± 0.062
SUM44 BREAST	1.043 ± 0.0078	1.08 ± 0.034	1.04 ± 0.023	1.07 ± 0.017	0.979 ± 0.017	0.561 ± 0.014	0.26 ± 0.0095	0.254 ± 0.01	1.17 ± 0.34	1.22 ± 0.34	1.2 ± 0.26	1.2 ± 0.39	1.3 ± 0.43	1.19 ± 0.36	1.13 ± 0.29	1.08 ± 0.32
SUM149 BREAST	1.13 ± 0.077	1.09 ± 0.069	1.16 ± 0.095	1.12 ± 0.097	0.706 ± 0.025	0.328 ± 0.024	0.073 ± 0.0044	0.0517 ± 0.0025	1.12 ± 0.094	1.02 ± 0.1	1.03 ± 0.078	1.03 ± 0.14	0.861 ± 0.031	0.911 ± 0.076	1.01 ± 0.11	0.868 ± 0.032
SUM149.B1*.S BREAST	1.1 ± 0.035	1.11 ± 0.053	1.1 ± 0.043	1.13 ± 0.017	1.07 ± 0.025	0.892 ± 0.018	0.198 ± 0.01	0.144 ± 0.0048	1.17 ± 0.043	1.1 ± 0.022	1.14 ± 0.065	1.16 ± 0.087	1.18 ± 0.051	1.16 ± 0.099	1.14 ± 0.07	1.2 ± 0.034
SUM159 BREAST	1.06 ± 0.023	1.03 ± 0.021	1.04 ± 0.028	1.02 ± 0.022	1.01 ± 0.069	1.02 ± 0.057	0.69 ± 0.17	0.377 ± 0.16	1.12 ± 0.024	1.12 ± 0.028	1.12 ± 0.026	1.11 ± 0.013	1.09 ± 0.025	1.13 ± 0.023	1.114 ± 0.01	1.06 ± 0.016
